Here are results for three compounds from publication PMC8295196 (Organic & biomolecular chemistry, 2021).

Data set [1] concerns the target T1, Cytidine Deaminase (CDA) (Homo sapiens, UniProt P32320, K27Q). Kind of data set: CDA-mediated deamination monitored by absorbance. The following applies: for k1 / k2: Michaelis-Menten differential equations; for k−1: Michaelis-Menten, values assumed to be ≤10% of k1 values; for Km: calculated from k1, k−1 and k2.
Data set [2] concerns the target T1, Cytidine Deaminase (CDA). Kind of data set: CDA-mediated deamination monitored by emission. Conditions: for k1 / k2: Michaelis-Menten differential equations; for k−1: Michaelis-Menten, values assumed to be ≤10% of k1 values; for Km: calculated from k1, k−1 and k2.
The target of data set [3] is T1, Cytidine Deaminase (CDA). In words: HPLC analysis of enzymatic deamination reactions. Conditions: after 60 minutes. In kind it is biochemical.
The mark [4] stands for this setting: pseudo-first order fit to absorption curves.
Setting [5] is: pseudo-first order fit, absorption (Abs).
[6] abbreviates: pseudo-first order fit to emission curves.
The mark [7] stands for this setting: pseudo-first order fit, emission (Em).

T1 sequence (P32320 whole entry K27Q): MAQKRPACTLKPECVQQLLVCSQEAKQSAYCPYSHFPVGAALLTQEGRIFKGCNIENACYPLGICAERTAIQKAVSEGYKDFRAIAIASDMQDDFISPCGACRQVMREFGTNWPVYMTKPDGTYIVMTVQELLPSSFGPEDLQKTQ

For `Cc1sc([C@@H]2O[C@H](CO)[C@@H](O)[C@H]2O)c2[nH]c(=O)nc(N)c12` [^mthC], on Cytidine Deaminase (CDA) [1] (absorption (Abs)), the k1 was 750000 ± 160000 M⁻¹ s⁻¹, the k2 amounted to 56 ± 5.9 s⁻¹, the “k−1” value came out at 0.075 s⁻¹ and the Km (commonly the concentration of substrate that gives half-maximal velocity) is 75 µM. In addition, the kapp at Cytidine Deaminase (CDA) [1] (setting [4]) is listed as 6.1 ± 0.2 s^–1. In addition, at Cytidine Deaminase (CDA) [1] (setting [5]), the kapp is listed as 6.1 ± 0.2 x 10^−3 s^−1 and the t1/2 turned out to be 1.83 ± 0.033 min. Moreover, at Cytidine Deaminase (CDA) [2] (emission (Em)), the k1 amounted to 710000 ± 180000 M⁻¹ s⁻¹, the k2 was determined as 45 ± 2.3 s⁻¹, the “k−1” value amounted to 0.071 s⁻¹ and the Km was 63 µM. The compound also came in with a kapp on Cytidine Deaminase (CDA) [2] (setting [6]) of 5.7 ± 0.1 s^–1. Moreover, on Cytidine Deaminase (CDA) [2] (setting [7]), the kapp is recorded as 5.7 ± 0.1 x 10^−3 s^−1 and the t1/2 is 2 ± 0.13 min. The “conversion to corresponding U analogue by CDA (HPLC)” value at Cytidine Deaminase (CDA) [3] is given as “complete conversion”.

As for `Nc1nc(=O)[nH]c2c([C@@H]3O[C@H](CO)[C@@H](O)[C@H]3O)scc12` [^thC], at Cytidine Deaminase (CDA) [1] (absorption (Abs)), the k1 came to 1.01e+06 ± 470000 M⁻¹ s⁻¹, the k2 stood at 34 ± 7.2 s⁻¹, the “k−1” value was 0.101 s⁻¹ and the Km was 34 µM. On Cytidine Deaminase (CDA) [1] (setting [4]), this compound gave a kapp of 7.2 ± 0.2 s^–1. Besides, at Cytidine Deaminase (CDA) [1] (setting [5]), the kapp is on record as 7.2 ± 0.2 x 10^−3 s^−1 and the t1/2 came to 1.53 ± 0.083 min. Further, on Cytidine Deaminase (CDA) [2] (emission (Em)), the k1 came out at 950000 ± 140000 M⁻¹ s⁻¹, the k2 turned out to be 46 ± 5.3 s⁻¹, the “k−1” value was determined as 0.095 s⁻¹ and the Km was 49 µM. At Cytidine Deaminase (CDA) [2] (setting [6]), this compound had a kapp of 7.4 ± 0.1 s^–1. Besides, at Cytidine Deaminase (CDA) [2] (setting [7]), the kapp is 7.4 ± 0.1 x 10^−3 s^−1 and the t1/2 is 1.57 ± 0.033 min. Further, on Cytidine Deaminase (CDA) [3], the “conversion to corresponding U analogue by CDA (HPLC)” value is given as “complete conversion”.

In the case of `Nc1nc(=O)[nH]c2c([C@@H]3O[C@H](CO)[C@@H](O)[C@H]3O)snc12` [^tzC], the values for the k1 on Cytidine Deaminase (CDA) [1] (absorption (Abs)) and at Cytidine Deaminase (CDA) [2] (emission (Em)) were 1.04e+06 ± 10000 M⁻¹ s⁻¹ and 1.06e+06 ± 320000 M⁻¹ s⁻¹, respectively. Moreover, the k2 on Cytidine Deaminase (CDA) [1] (absorption (Abs)) amounted to 3.2 ± 0.3 s⁻¹; on Cytidine Deaminase (CDA) [2] (emission (Em)), 4.6 ± 1.3 s⁻¹. For the same compound, the “k−1” value stood at 0.104 s⁻¹ on Cytidine Deaminase (CDA) [1] (absorption (Abs)) and 0.106 s⁻¹ at Cytidine Deaminase (CDA) [2] (emission (Em)). Besides, the Km on Cytidine Deaminase (CDA) [1] (absorption (Abs)) was 3.1 µM; at Cytidine Deaminase (CDA) [2] (emission (Em)) it was 4.4 µM. Also, the kapp at Cytidine Deaminase (CDA) [1] (setting [4]) is reported as 3.3 ± 0.1 s^–1; at Cytidine Deaminase (CDA) [1] (setting [5]) it was 3.3 ± 0.1 x 10^−3 s^−1; on Cytidine Deaminase (CDA) [2] (setting [6]), 4.1 ± 0.1 s^–1; on Cytidine Deaminase (CDA) [2] (setting [7]), 4.1 ± 0.1 x 10^−3 s^−1. In addition, the t1/2 on Cytidine Deaminase (CDA) [1] (setting [5]) came out at 3.5 ± 0.267 min; at Cytidine Deaminase (CDA) [2] (setting [7]) it was 2.83 ± 0.167 min. Further, the “conversion to corresponding U analogue by CDA (HPLC)” value at Cytidine Deaminase (CDA) [3] is “complete conversion”.
